Laboratory results reported in BindingDB's records for doi:10.1021/bi00421a012 (Pennsylvania State University, 1988).

Biological target: T1, Carbamoyl-phosphate synthase small chain (Escherichia coli (strain K12), UniProt P0A6F1)
T1 sequence (P0A6F1 whole entry): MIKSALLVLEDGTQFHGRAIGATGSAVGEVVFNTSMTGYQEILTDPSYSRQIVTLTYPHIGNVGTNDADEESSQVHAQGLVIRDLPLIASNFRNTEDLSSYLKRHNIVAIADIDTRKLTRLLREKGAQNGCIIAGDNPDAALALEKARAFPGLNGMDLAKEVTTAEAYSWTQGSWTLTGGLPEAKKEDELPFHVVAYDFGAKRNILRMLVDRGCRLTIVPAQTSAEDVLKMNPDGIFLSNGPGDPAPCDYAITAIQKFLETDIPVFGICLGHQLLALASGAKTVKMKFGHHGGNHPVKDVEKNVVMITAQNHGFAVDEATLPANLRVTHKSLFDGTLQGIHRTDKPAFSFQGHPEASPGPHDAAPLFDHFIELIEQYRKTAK
Details: pH 7.5; 25 °C

Kd: 33 µM
Structure (SMILES): O=P(O)(O)OC[C@H]1O[C@@H](n2cnc3c2ncn2ccnc32)[C@H](O)[C@@H]1O [[(2R,3S,4R,5R)-3,4-dihydroxy-5-imidazo[2,1-f]purin-3-yloxolan-2-yl]methyl dihydrogen phosphate]
